From US10337071B2, “Oncogene NRF2” (National Cancer Center, priority 2008, dated 2019)

Columns and labels:
Type in all cases: cell-based
[1] = system: esophageal cancer cell lines with NRF2 gene abnormality (KYSE-50, KYSE-70, KYSE-180); experiment: Suppression of proliferation by rapamycin treatment, MTS assay; settings: rapamycin 1, 5, 10 nM, 72 hours
Method: (§1) Suppression of proliferation by rapamycin treatment was examined for the esophageal cancer cell lines without NRF2 gene abnormality (KYSE-30, KYSE-140, KYSE-170, KYSE-270) and for the cell lines with NRF2 gene abnormality (KYSE-50, KYSE-70, KYSE-180). The 7 esophageal cancer cell lines were seeded onto 96 well plates at 5000 cells/well, and 0, 1, 5, and 10 nM of rapamycin were added. After incubated at 37 degrees C. for 72 hours, viable cells were counted based on the NADH activity (MTS assay, CellTiter 96 Aqueous One Solution Cell Proliferation Assay, Promega).

[2] = system: lung cancer cell lines with NRF2 gene abnormality (LK-2, EBC-1); experiment: as above
Method: as §1
(§2) In addition, growth suppression effect of rapamycin treatment to the lung cancer cell lines without NRF2 gene abnormality (SQ-5, QG-56) or with NRF2 gene abnormality (LK-2, EBC-1) and to the head and neck cancer cell lines without NRF2 gene abnormality (HO-1-N-1, HSC2) or with NRF2 gene abnormality (HO-1-u-1) were also examined by similar method for the above esophageal cancer cell lines.

[3] = system: head and neck cancer cell lines with NRF2 gene abnormality (HO-1-u-1); experiment: as above
Method: as §1, §2

[4] = system: KYSE-50 esophageal cancer cell line (NRF2 gene mutation); experiment: Growth suppression by dsRNA against NRF2, MTS assay; settings: KYSE-50, 72 hours, vs control dsRNA
Method: (§3) NRF2 gene expression was suppressed by dsRNA for the esophageal cancer cell lines that have NRF2 gene mutation (KYSE-50 and KYSE-180). Esophagus cancer cell lines were seeded into 96 well plates at 5000 cells/well, and control dsRNA (ON-TARGET plus Non-targeting Pool, Dharmacon, D-001810-10) or dsRNA against NRF2 (NRF2 dsRNA) (5′-[…]-3′ (SEQ ID NO 20) and 5′-p[…]-3′ (SEQ ID NO 21)) were introduced using Lipofectamine (Lipofectamine RNAiMax, Invitrogen). Then they were incubated at 37 degrees C. for 72 hours. Then, the number of viable cells was determined by a MTS assay for the NADH activity (CellTiter 96 Aqueous One Solution Cell Proliferation Assay, Promega).

[5] = system: KYSE-180 esophageal cancer cell line (NRF2 gene mutation); experiment: as above; settings: KYSE-180, 72 hours, vs control dsRNA
Method: as §3

| Compound | cell proliferation, ratio of cell counts, % of the control (0 nM = 100%) [1] | cell proliferation, ratio of cell counts, % of the control (0 nM = 100%) [2] | cell proliferation, ratio of cell counts, % of the control (0 nM = 100%) [3] | suppressive effect on proliferation compared with the control [4] | suppressive effect on proliferation compared with the control [5] |
| --- | --- | --- | --- | --- | --- |
| CO[C@H]1C[C@@H]2CC[C@@H](C)[C@@](O)(O2)C(=O)C(=O)N2CCCC[C@H]2C(=O)O[C@H]([C@H](C)C[C@@H]2CC[C@@H](O)[C@H](OC)C2)CC(=O)[C@H](C)/C=C(\C)[C@@H](O)[C@@H](OC)C(=O)[C@H](C)C[C@H](C)/C=C/C=C/C=C/1C [rapamycin] | about 70% | 62-70% | about 70% | – | – |
| NRF2 dsRNA: dsRNA against NRF2: 5'-UAAAGUGGCUGCUCAGAAUUU-3' (SEQ ID NO 20) and 5'-pAUUCUGAGCAGCCACUUUAUU-3' (SEQ ID NO 21) (second strand carries 5' phosphate, otherwise chemistry not given here, further chemistry not given here) | – | – | – | 26% | 38% |
